This passage reports GI50 and TGI results from PubChem BioAssay (NCI).

“And” between values parts separate entries of the source, which are not always exact repeats. Equal values may be shown once.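 In this assay, cells in 96-well plates receive the compound at five concentrations for 48 hours. Endpoints are linearly interpolated between the surrounding concentrations. At the GI50, growth is halved. Definition used: TGI = concentration required for complete inhibition of growth.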

Among the test systems are A549 NSCLC; EKVX NSCLC; HS 578T breast; M14 melanoma; NCI-H23 lung; NCI-H460 lung; RXF 393 renal; SW-620 colon; UACC-62 melanoma; NCI-H522 lung.
Common to all, as to assay: growth of human tumour cells (NCI), 48 h

In the case of `COc1ccc(C(=O)C(CN(C)C)c2ccccc2)cc1` (centres undefined), the GI50 in the test with A549 NSCLC was 18.1 µM; in the test with EKVX NSCLC it was 14.1 µM; in the test on HS 578T breast it was 1.95 µM; with M14 melanoma, 1.68 µM; in the test on NCI-H23 lung, 1.56 µM; in the test on NCI-H460 lung it was 6.13 µM. The GI50 in the test on RXF 393 renal was 1.32 µM; in the test with SW-620 colon, 0.496 µM; with UACC-62 melanoma, 2.81 µM. Further, the TGI with A549 NSCLC was 96.3 µM; in the test on EKVX NSCLC it was 34.1 µM; in the test on HS 578T breast, 6.17 µM; in the test on M14 melanoma it was 3.33 µM; in the test on NCI-H23 lung it was 3.32 µM; in the test with NCI-H460 lung, 19.2 µM. The TGI in the test with RXF 393 renal was 3.1 µM; in the test with SW-620 colon, 1.57 µM; with UACC-62 melanoma, 8.22 µM.
As for `O=C(c1nc2ccccc2[nH]1)C1C(c2cccc([N+](=O)[O-])c2)C2CC3CCCCC3N2[C@@]12C(=O)Nc1cc(Cl)ccc12` (some centres undefined), the GI50 with A549 NSCLC was 2.34 µM; with EKVX NSCLC, 2.02 µM; with HS 578T breast it was 1.63 µM; in the test on NCI-H23 lung it was 2.37 µM; in the test with NCI-H522 lung it was 1.67 µM; with RXF 393 renal, 1.36 µM. The results for the GI50 in the test with SW-620 colon and in the test on UACC-62 melanoma were 1.78 µM and 1.5 µM, respectively. Besides, the TGI with A549 NSCLC worked out at 6.88 µM; with EKVX NSCLC it was 6.31 µM; in the test with HS 578T breast, 4.41 µM; with NCI-H23 lung it was 5.89 µM; in the test on NCI-H522 lung it was 4.38 µM; with RXF 393 renal it was 2.81 µM. Also, the TGI in the test with SW-620 colon was found to be 4.31 µM; in the test on UACC-62 melanoma, 3.2 µM.
For the molecule `Nc1ccc(Sc2ccc3c4c2cccc4c(=O)n2c4ccccc4nc32)cc1`, the GI50 with A549 NSCLC was 2.17 µM; in the test with HS 578T breast, 10.1 µM; in the test with M14 melanoma, 4.51 µM; in the test with NCI-H23 lung, 5.03 µM; with NCI-H460 lung, 1.9 µM; in the test with NCI-H522 lung it was 3.99 µM. Further, the GI50 was 6.9 µM in the test on RXF 393 renal, 5.16 µM in the test with SW-620 colon and 2.48 µM in the test with UACC-62 melanoma. Moreover, the TGI in the test on A549 NSCLC was 12.9 µM; in the test with HS 578T breast, greater than 100 µM; in the test with M14 melanoma it was 27.9 µM; in the test on NCI-H23 lung, greater than 100 µM; in the test with NCI-H460 lung, 14.3 µM; in the test on NCI-H522 lung, 36.8 µM. Besides, the TGI in the test with RXF 393 renal was 34.5 µM; in the test with SW-620 colon, greater than 100 µM; in the test with UACC-62 melanoma, 16.1 µM.
Regarding `COC(=O)C12CC(NC(=O)c3csc([C@@H](C[C@H](C(C)C)N(C)C(=O)[C@@H](NC(=O)[C@H]4CCCCN4C)C(C)C)OC(C)=O)n3)(C1)C2`, the GI50 in the test with A549 NSCLC was 0.0163 µM and 0.00413 µM; with EKVX NSCLC, 0.018 µM and 0.00426 µM; in the test on HS 578T breast, 0.00333 µM; in the test with M14 melanoma, 0.00176 µM and 0.00333 µM; in the test on NCI-H23 lung, 0.0104 µM and 0.00333 µM; with NCI-H460 lung it was 0.00298 µM and 0.00333 µM. Also, the GI50 in the test with NCI-H522 lung was 0.000185 µM and < 0.00333 µM; in the test with SW-620 colon, 0.000535 µM and 0.00333 µM; in the test on UACC-62 melanoma it was 0.00313 µM and 0.00333 µM. The TGI in the test on A549 NSCLC, in the test with EKVX NSCLC, in the test on HS 578T breast, in the test on M14 melanoma, in the test on NCI-H23 lung and in the test with NCI-H460 lung was greater than 33.3 µM in each case. Moreover, the TGI is 0.000929 µM and < 0.00333 µM in the test with NCI-H522 lung; greater than 33.3 µM with SW-620 colon; greater than 33.3 µM with UACC-62 melanoma.
Regarding `CCN1CCN(c2nc(NNC(=O)c3cccc(OC)c3)nc(N3CCN(C(c4ccccc4)c4ccccc4)CC3)n2)CC1`, the GI50 in the test with A549 NSCLC was 3.05 µM; with EKVX NSCLC it was 2.46 µM; in the test on HS 578T breast it was 1.89 µM; with M14 melanoma it was 1.67 µM; in the test on NCI-H23 lung it was 1.92 µM; in the test with NCI-H460 lung it was 1.75 µM. Moreover, the GI50 in the test on RXF 393 renal was 1.63 µM; in the test with SW-620 colon, 1.75 µM; with UACC-62 melanoma, 1.84 µM. The TGI was greater than 100 µM with A549 NSCLC; 12.3 µM in the test on EKVX NSCLC; 4.43 µM in the test with HS 578T breast; 3.31 µM with M14 melanoma; 5.03 µM in the test on NCI-H23 lung; 3.39 µM with NCI-H460 lung. For the same molecule, the values for the TGI in the test with RXF 393 renal, in the test on SW-620 colon and with UACC-62 melanoma were 3.1 µM, 3.45 µM and 3.71 µM, respectively.
Regarding `COC(=O)[C@@H](C)C[C@H](Cc1ccccc1)NC(=O)c1csc([C@@H](C[C@H](C(C)C)N(C)C(=O)[C@@H](NC(=O)CN(C)C)C2CC2)OC(C)=O)n1`, the GI50 with A549 NSCLC is 0.24 µM; with EKVX NSCLC it was 0.208 µM; in the test with HS 578T breast it was 0.0263 µM; in the test with M14 melanoma it was 0.0185 µM; in the test with NCI-H23 lung, 0.0635 µM; in the test on NCI-H460 lung it was 0.0291 µM. For the same molecule, the GI50 was 0.0033 µM in the test with NCI-H522 lung, 0.0137 µM with SW-620 colon and 0.0112 µM in the test with UACC-62 melanoma. Also, the TGI in the test with A549 NSCLC was greater than 16.5 µM; in the test with EKVX NSCLC, greater than 16.5 µM; in the test with HS 578T breast, greater than 16.5 µM; in the test on NCI-H23 lung it was greater than 16.5 µM; in the test on NCI-H460 lung, greater than 16.5 µM; with NCI-H522 lung it was 0.26 µM. For the same molecule, the TGI in the test on SW-620 colon and with UACC-62 melanoma was greater than 16.5 µM throughout.
Regarding `c1ccc2c(Nc3ccc4c(c3)OCO4)c3ccoc3nc2c1`, the GI50 was 6.96 µM with A549 NSCLC; greater than 100 µM with HS 578T breast; 14.3 µM in the test on M14 melanoma; 10.9 µM in the test on NCI-H23 lung; 16.5 µM in the test on NCI-H460 lung; 27.2 µM with NCI-H522 lung. Besides, the GI50 in the test with RXF 393 renal was 3.53 µM; in the test on UACC-62 melanoma, 13.9 µM. For the same molecule, the TGI was 35.8 µM in the test on A549 NSCLC; greater than 100 µM in the test on HS 578T breast; 29.8 µM in the test with M14 melanoma; 27.3 µM in the test on NCI-H23 lung; greater than 100 µM with NCI-H460 lung; greater than 100 µM in the test with NCI-H522 lung. For the same molecule, the TGI is 23.1 µM with RXF 393 renal and 33.1 µM with UACC-62 melanoma.
As for `Cn1cc(C2=C(c3cccc(Cl)c3)C(=O)NC2=O)c2ccccc21`, the GI50 in the test with A549 NSCLC is greater than 25 µM; in the test with HS 578T breast, 7.28 µM; in the test with M14 melanoma it was 8.03 µM; in the test on NCI-H23 lung, greater than 25 µM; in the test with NCI-H460 lung, greater than 22.7 µM; in the test on NCI-H522 lung, greater than 25 µM. Also, the GI50 is 8.22 µM in the test on RXF 393 renal, greater than 25 µM in the test with SW-620 colon and 5.19 µM in the test on UACC-62 melanoma. Further, the TGI was greater than 25 µM in the test with A549 NSCLC; greater than 25 µM with HS 578T breast; 23 µM in the test with M14 melanoma; greater than 25 µM with NCI-H23 lung; greater than 25 µM in the test with NCI-H460 lung; greater than 25 µM in the test with NCI-H522 lung. Also, the TGI with RXF 393 renal was greater than 25 µM; in the test with SW-620 colon it was greater than 25 µM; in the test with UACC-62 melanoma, 12.7 µM.
